This note sets out measurements from patent US12162888B2, “Carboxamides as ubiquitin-specific protease inhibitors” (Valo Early Discovery, Inc., priority 2018, dated 2024).

Some results are limits rather than exact numbers.

One test addresses T1, USP28 (His-tagged USP28-FL-mammalian) (Homo sapiens, UniProt Q96RU2).
T1 construct: Expression of USP28 (1-1077)-TEV-6*His (pTT5 vector) was carried out in Expi293f cells; made in house; host or cells: Expi293F cells (pTT5 vector)
T1 sequence (Q96RU2 1-1077): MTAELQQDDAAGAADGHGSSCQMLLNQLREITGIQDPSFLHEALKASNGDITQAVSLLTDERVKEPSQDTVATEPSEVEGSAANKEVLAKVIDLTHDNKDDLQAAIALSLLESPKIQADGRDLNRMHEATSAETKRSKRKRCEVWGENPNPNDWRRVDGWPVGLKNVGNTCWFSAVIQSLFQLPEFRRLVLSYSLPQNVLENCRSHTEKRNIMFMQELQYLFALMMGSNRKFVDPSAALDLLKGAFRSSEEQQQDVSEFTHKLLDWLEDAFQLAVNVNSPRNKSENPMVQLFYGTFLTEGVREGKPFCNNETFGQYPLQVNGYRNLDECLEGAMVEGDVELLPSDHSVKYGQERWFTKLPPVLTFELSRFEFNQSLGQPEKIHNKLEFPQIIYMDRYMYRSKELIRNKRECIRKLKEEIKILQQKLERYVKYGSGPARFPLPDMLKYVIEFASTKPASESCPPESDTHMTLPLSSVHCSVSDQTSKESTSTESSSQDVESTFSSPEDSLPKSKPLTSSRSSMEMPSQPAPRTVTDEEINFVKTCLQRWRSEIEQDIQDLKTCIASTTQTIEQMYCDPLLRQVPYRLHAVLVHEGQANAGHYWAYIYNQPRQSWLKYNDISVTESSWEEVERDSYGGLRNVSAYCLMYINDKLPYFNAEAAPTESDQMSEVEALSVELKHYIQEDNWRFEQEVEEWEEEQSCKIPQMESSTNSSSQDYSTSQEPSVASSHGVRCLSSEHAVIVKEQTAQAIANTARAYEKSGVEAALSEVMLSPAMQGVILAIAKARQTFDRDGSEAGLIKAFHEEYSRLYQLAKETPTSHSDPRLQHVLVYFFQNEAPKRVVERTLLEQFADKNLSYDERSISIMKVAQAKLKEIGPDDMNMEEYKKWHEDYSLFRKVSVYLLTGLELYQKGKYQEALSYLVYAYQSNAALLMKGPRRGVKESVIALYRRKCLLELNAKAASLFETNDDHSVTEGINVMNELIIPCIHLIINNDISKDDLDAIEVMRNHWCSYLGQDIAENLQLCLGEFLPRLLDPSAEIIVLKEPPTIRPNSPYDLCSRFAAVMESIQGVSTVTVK
The test can be described thus: Ubiquitin-Rhodamine 110 Assay for USP28 Activity, Example A-1(a). Particulars: biochemical IC50 range, Ubiquitin-Rhodamine 110 assay, read-out: USP28 A-1(a). It counts as biochemical. The essentials: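 IC50s were fitted with a 4-parameter logistic to percent inhibition relative to no-enzyme and DMSO controls, using Rhodamine 110 fluorescence (485/535 nm) released from 25 nM Ub-Rh110. The enzyme was Expi293F-expressed USP28-FL-His at […], preincubated 30 min with compound (10-point, 25 μM top) in Tris pH 8.0 buffer containing BGG and Triton X-100. Substrate turnover ran 45 min at room temperature and was stopped with 10 mM citric acid.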
As to `Cc1ccc2c(N)c(C(=O)N[C@H]3COc4cc(OC[C@H]5CNCC5(F)F)ccc4C3)sc2n1` [Example 686, 3-amino-N-[(3R)-7-{[(3R)-4,4-difluoropyrrolidin-3-yl]methoxy}-3,4-dihydro-2H-1-benzopyran-3-yl]-6-methylthieno[2,3-b]pyridine-2-carboxamide], the IC50 is 1 to 50 nM.

Regarding `Cc1ccc2c(N)c(C(=O)N[C@H]3COc4cc(OC[C@@H]5CNC[C@H]5C(F)(F)F)ccc4C3)sc2n1` [Example 687, 3-amino-6-methyl-N-[(3R)-7-{[(3S,4S)-4-(trifluoromethyl)pyrrolidin-3-yl]methoxy}-3,4-dihydro-2H-1-benzopyran-3-yl]thieno[2,3-b]pyridine-2-carboxamide], the IC50 lay within 1 to 50 nM.

With `Cc1ccc2c(N)c(C(=O)N[C@H]3COc4cc(OC[C@H]5CNC[C@@H]5C(F)(F)F)ccc4C3)sc2n1` [Example 688, 3-amino-6-methyl-N-[(3R)-7-{[(3R,4R)-4-(trifluoromethyl)pyrrolidin-3-yl]methoxy}-3,4-dihydro-2H-1-benzopyran-3-yl]thieno[2,3-b]pyridine-2-carboxamide], the IC50 lay within 1 to 50 nM.

For the molecule `CO[C@@H]1CCCN(c2cc(F)c3c(c2)OC[C@H](NC(=O)c2sc4nc(C)ccc4c2N)C3)C[C@H]1N` [Example 689, 3-amino-N-[(3R)-7-[(3R,4R)-3-amino-4-methoxyazepan-1-yl]-5-fluoro-3,4-dihydro-2H-1-benzopyran-3-yl]-6-methylthieno[2,3-b]pyridine-2-carboxamide], the IC50 fell in the range of 1 to 50 nM.

For `COC1CCCN(c2cc(F)c3c(c2)OCC(NC(=O)c2sc4nc(C)ccc4c2N)C3)CC1N` [Example 690, 3-amino-N-[(3R)-7-[(3S,4S)-3-amino-4-methoxyazcpan-1-yl]-5-fluoro-3,4-dihydro-2H-1-benzopyran-3-yl]-6-methylthieno[2,3-b]pyridine-2-carboxamide], the IC50 was in the range of 1 to 50 nM.

On to `CO[C@H]1CCCN(c2cc(F)c3c(c2)OC[C@H](NC(=O)c2sc4nc(C)ccc4c2N)C3)C[C@H]1N` [Example 691, 3-amino-N-[(3R)-7-[(3R,4S)-3-amino-4-methoxyazepan-1-yl]-5-fluoro-3,4-dihydro-2H-1-benzopyran-3-yl]-6-methylthieno[2,3-b]pyridine-2-carboxamide], for which the IC50 fell in the range of 50 to 200 nM.

Regarding `CO[C@@H]1CCCN(c2cc(F)c3c(c2)OC[C@H](NC(=O)c2sc4nc(C)ccc4c2N)C3)C[C@@H]1N` [Example 692, 3-amino-N-[(3R)-7-[(3S,4R)-3-amino-4-methoxyazepan-1-yl]-5-fluoro-3,4-dihydro-2H-1-benzopyran-3-yl]-6-methylthieno[2,3-b]pyridine-2-carboxamide], the IC50 was 1 to 50 nM.

As for `CO[C@H]1CN(c2cc(F)c3c(c2)OC[C@H](NC(=O)c2sc4nc(C)ncc4c2N)C3)C[C@@H]1N` [Example 693, 5-amino-N-[(3R)-7-[(3S,4S)-3-amino-4-methoxypyrrolidin-1-yl]-5-fluoro-3,4-dihydro-2H-1-benzopyran-3-yl]-2-methylthieno[2,3-d]pyrimidine-6-carboxamide], the IC50 was in the range of 200 to 2000 nM.

Take `COC[C@@H]1CN(c2cc(F)c3c(c2)OC[C@H](NC(=O)c2sc4nc(C)ncc4c2N)C3)C[C@@H]1N` [Example 694, 5-amino-N-[(3R)-7-[(3R,4R)-3-amino-4-(methoxymethyl)pyrrolidin-1-yl]-5-fluoro-3,4-dihydro-2H-1-benzopyran-3-yl]-2-methylthieno[2,3-d]pyrimidine-6-carboxamide]: the IC50 was 200 to 2000 nM.

In the case of `CN[C@@H]1CN(c2cc(F)c3c(c2)OC[C@H](NC(=O)c2sc4nc(C)ncc4c2N)C3)C[C@H]1COC` [Example 695, 5-amino-N-[(3R)-5-fluoro-7-[(3R,4S)-3-(methoxymethyl)-4-(methylamino)pyrrolidin-1-yl]-3,4-dihydro-2H-1-benzopyran-3-yl]-2-methylthieno[2,3-d]pyrimidine-6-carboxamide], the IC50 lay in the range of 200 to 2000 nM.

Consider `CCn1cc(Cl)c2cc(C(=O)N[C@H]3COc4cc(N5C[C@H](OC)[C@@H](N)C5)ccc4C3)nnc21` [Example 696, N-[(3R)-7-[(3S,4S)-3-amino-4-methoxypyrrolidin-1-yl]-3,4-dihydro-2H-1-benzopyran-3-yl]-5-chloro-7-ethyl-7Hpyrrolo[2,3-c]pyridazine-3-carboxamide], for which the IC50 lay within 200 to 2000 nM.

Another test has as its target T2, USP25 (USP25-His6, Boston Biochem E-546) (Homo sapiens, UniProt Q9UHP3).
T2 construct: His6 (C); purchased Boston Biochem E-546
T2 sequence (Q9UHP3 1-1055): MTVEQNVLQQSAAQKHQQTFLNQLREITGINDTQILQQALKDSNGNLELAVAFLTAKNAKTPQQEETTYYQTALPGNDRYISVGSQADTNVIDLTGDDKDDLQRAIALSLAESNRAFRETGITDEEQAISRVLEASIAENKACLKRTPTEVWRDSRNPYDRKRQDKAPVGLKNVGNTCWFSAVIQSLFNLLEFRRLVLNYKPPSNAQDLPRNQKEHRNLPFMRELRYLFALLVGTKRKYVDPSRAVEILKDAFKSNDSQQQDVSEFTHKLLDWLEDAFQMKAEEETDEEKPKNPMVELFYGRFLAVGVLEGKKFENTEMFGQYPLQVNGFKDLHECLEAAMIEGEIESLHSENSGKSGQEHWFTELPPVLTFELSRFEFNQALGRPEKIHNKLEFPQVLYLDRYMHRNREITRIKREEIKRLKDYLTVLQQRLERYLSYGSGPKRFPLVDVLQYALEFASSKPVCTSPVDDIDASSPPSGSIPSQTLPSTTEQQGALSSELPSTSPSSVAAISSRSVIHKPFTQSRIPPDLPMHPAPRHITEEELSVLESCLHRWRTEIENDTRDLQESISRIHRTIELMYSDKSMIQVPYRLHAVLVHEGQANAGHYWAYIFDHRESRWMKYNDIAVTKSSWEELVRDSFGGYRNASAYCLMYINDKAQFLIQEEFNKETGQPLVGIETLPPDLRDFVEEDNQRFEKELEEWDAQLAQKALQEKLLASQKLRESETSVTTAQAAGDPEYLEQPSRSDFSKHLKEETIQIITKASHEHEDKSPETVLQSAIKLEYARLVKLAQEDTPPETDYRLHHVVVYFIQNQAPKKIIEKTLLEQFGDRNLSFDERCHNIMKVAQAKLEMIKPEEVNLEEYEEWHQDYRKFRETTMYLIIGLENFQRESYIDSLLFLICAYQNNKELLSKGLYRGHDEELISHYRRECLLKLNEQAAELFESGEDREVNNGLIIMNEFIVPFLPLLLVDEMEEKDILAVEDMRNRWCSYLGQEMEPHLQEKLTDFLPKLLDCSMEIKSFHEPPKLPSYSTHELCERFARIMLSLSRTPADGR
Kind of test: Ubiquitin-Rhodamine 110 Assay for USP25 Activity, Example A-3. It counts as biochemical. Particulars: Ubiquitin-Rhodamine 110 assay, Example A-3; read-out: USP25 A-3 IC50 range. As for the experimental part:
Example A-3: Biochemical Assay: Ubiquitin-Rhodamine 110 Assay for USP25 Activity
The assay was performed in a final volume of 9 μL in assay buffer containing 20 mM Tris-HCl (pH 8.0, (1M Tris-HCl, pH 8.0 solution; Corning 46-031-CM)), 3 mM BME (2-Mercaptoethanol; Sigma 63689-25ML-F), 0.03% BGG (0.22 μM filtered, Sigma, G7516-25G), and 0.01% Triton X-100 (Sigma, T9284-10L). Nanoliter quantities of 10-point, 3-fold serial dilution in DMSO was pre-dispensed into 1536 assay plates (Corning, #3724BC) for a final test concentration of 25 μM to 1.3 nM, top to lowest dose, respectively. Enzyme USP25, construct USP25-His6, (Boston Biochem E-546). Concentration and incubation times were optimized for the maximal signal-to-background while maintaining initial velocity conditions at a fixed substrate concentration. The final concentration of the enzyme in the assay was […]. Final substrate (Ub-Rh110; Ubiquitin-Rhodamine 110, R&D Systems #U-555) concentration was 25 nM with [Ub-Rh110]<<Km. 3 μL of 2× enzyme was added to assay plates (pre-stamped with compound) preincubated with […] for 30 minutes and then 3 μL of 2× Ub-Rh110 was added to assay plates. Plates were incubated for 45 minutes at room temperature before addition of 3 μL of stop solution (final concentration of 10 mM citric acid (Sigma, 251275-500G)). Fluorescence was read on the Envision (Excitation at 485 nm and Emission at 535 nm; Perkin Elmer) or on the PheraSTAR (Excitation at 485 nm and Emission at 535 nm; BMG Labtech).
For assay formats Example A-1(a), A-1(b), and A-2, data were reported as percent inhibition compared with control wells based on the following equation: % inh=1−((FLU−AveLow)/(AveHigh−AveLow)) where FLU=measured Fluorescence, AveLow=average Fluorescence of no enzyme control (n=16), and AveHighh=average Fluorescence of DMSO control (n=16). IC50 values were determined by curve fitting of the standard 4 parameter logistic fitting algorithm included in the Activity Base software package: IDBS XE Designer Model 205. Data is fitted using the Levenburg Marquardt algorithm.
On to `Cc1ccc2c(N)c(C(=O)N[C@H]3CCc4nc(N5C[C@@H](N)[C@@]6(CCOC6)C5)ccc4C3)sc2n1` (single isomer, unassigned) [Example 431], for which the IC50 is above 2000 nM.
